Values quoted from earlier work as cited in US20090035370A1, “DOSAGE FORM AND METHOD OF USE” (DRUGTECH CORPORATION, priority 2007, published 2009).
Where two headings read alike, the source gives them in different places.

Columns and labels:
D2 receptor [1] = biological target: T1, D2 receptor (Homo sapiens, UniProt P14416)
D2 receptor [2] = biological target: T1, D2 receptor; settings: PET
[3] = administered orally
D2 receptor [4] = biological target: T1, D2 receptor; settings: patients receiving 300-600 mg/day

T1 sequence (P14416 whole entry): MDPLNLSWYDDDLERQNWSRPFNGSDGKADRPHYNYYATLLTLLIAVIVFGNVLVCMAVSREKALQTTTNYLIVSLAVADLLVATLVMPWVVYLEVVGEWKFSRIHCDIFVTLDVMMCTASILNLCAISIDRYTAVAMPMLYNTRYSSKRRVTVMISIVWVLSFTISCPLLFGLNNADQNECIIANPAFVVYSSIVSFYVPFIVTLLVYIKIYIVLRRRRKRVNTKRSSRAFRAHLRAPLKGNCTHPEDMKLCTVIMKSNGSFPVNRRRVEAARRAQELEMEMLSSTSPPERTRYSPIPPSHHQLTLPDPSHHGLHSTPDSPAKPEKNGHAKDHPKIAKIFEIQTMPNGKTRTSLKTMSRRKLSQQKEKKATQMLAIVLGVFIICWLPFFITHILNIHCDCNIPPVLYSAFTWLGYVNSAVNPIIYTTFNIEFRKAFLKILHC

OCCOCCN1CCN(C2=Nc3ccccc3Sc3ccccc32)CC1 [Quetiapine]
antipsychotic efficacy (Kapur et al. 2000): effective antipsychotic
response to treatment (patients with a first episode of schizophrenia, single daily dose): responded to treatment
D2 occupancy (D2 receptor [1]; 2-3 hours after a dose): 58-64%
D2 occupancy (D2 receptor [1]; by the end of a 12-hour dosing interval): 0-27%
D2 occupancy (D2 receptor [2]; 2 to 3 hours after a single dose): 58-62%
D2 occupancy (D2 receptor [2]; 12 hours after the last dose): 0-27%
time to peak plasma level [3]: ≤ 1.5 h
D2 occupancy (D2 receptor [4]; 12 hours after receiving a dose): less than 20%
D2 occupancy (D2 receptor [4]; at 2 hours): ~60%
